Source: patent US12344614B2, “Benzodiazepine derivatives as GABA a GAMMA1 PAM” (Hoffmann-La Roche Inc., priority 2021, dated 2025)
Where two headings read alike, the source gives them in different places.

How the values were obtained:
[1] = target: human GABAA α1β3γ2 receptor (Homo sapiens (Human), UniProt P14867+P18507); assay: Radioligand binding assay, competition for [3H]Flumazenil, HEK293F cells; conditions: for LogSel: Log[Ki α1β3γ2 (nM)/Ki α2β2γ1 (nM)]; for γ2/γ1 Selectivity Ratio: Ki α1β3γ2 (nM)/Ki α2β2γ1 (nM)
Protocol: The affinity of compounds at GABAA γ2 subunit-containing receptors was measured by competition for [^3H]Flumazenil (81.1 Ci/mmol; Roche) binding to HEK293F cells expressing human (transiently transfected) receptors of composition α1β3γ2.
Harvested pellets from HEK293F cells expressing the different GABAA γ2 receptor subtypes were resuspended in Mannitol Buffer pH 7.2-7.4 and processed as described above for the cells expressing the GABAA γ1 subunit-containing receptors.
Assays were incubated to equilibrium for 1 hour at 4° C. and harvested onto GF/C uni-filters (Packard) by filtration using a Packard harvester and washing with ice-cold wash buffer (50 mM Tris; pH 7.5). After anhydrousing, filter-retained radioactivity was detected by liquid scintillation counting. Ki values were calculated using Excel-Fit (Microsoft) and are the means of two determinations.

[2] = target: human GABAA α2β2γ1 receptor (Homo sapiens (Human), UniProt P47869+Q8N1C3); assay: Radioligand binding assay, competition for [3H]RO7239181, membranes from HEK293F cells
Protocol: (§1) The affinity of compounds at GABAA γ1 subunit-containing receptors was measured by competition for [^3H]RO7239181 (67.3 Ci/mmol; Roche) binding to membranes from HEK293F cells (ThermoFisher R79007) expressing human (transiently transfected) receptors of composition α5β2γ1, α2β2γ1, α1β2γ1.
(§2) Harvested pellets from HEK293F cells expressing the different GABAA receptor subtypes were resuspended in Mannitol Buffer pH 7.2-7.4 (Mannitol 0.29M, Triethylamine 10 mM, Acetic acid 10 mM, EDTA 1 mM plus protease inhibitors (20 tablets Complete, Roche Diagnostics Cat. No. 05 056 489 001 per liter)), washed two times and then resuspended at 1:10 to 1:15 dilution in the same buffer. Cell disruption was performed by stirring the suspension in a Parr vessel #4637 at 435 psi for 15 minutes, and then the suspensions were centrifuged at 1000×g for 15 minutes at 4° C. (Beckman Avanti J-HC; rotor JS-4.2). The supernatant (S1) was transferred in a 21 Schott flask and the pellet (P1) was resuspended with Mannitol Buffer up to 175 ml. The resuspended pellet was transferred into a 250 ml Corning centrifugal beaker and centrifuged at 1500×g for 10 minutes at 4° C. (Beckman Avanti J-HC; rotor JS-4.2). The supernatant (S1) was then transferred in the 21 Schott flask and the pellet was discarded. The supernatants (S1) were centrifuged in 500 ml Beckman polypropylene centrifugal beaker at 15′000×g for 30 minutes at 4° C. (Beckman Avanti J-20 XP; rotor JLA-10.500). The pellet (P2) was resuspended with Mannitol Buffer 1:1 and frozen at −80° C. The supernatant (S2) was centrifuged in 100 ml Beckman polypropylene centrifugal tubes at 48000×g for 50 minutes at 4° C. (Beckman Avanti J-20 XP; rotor JA-18). The supernatant (S3) was discarded and the pellet (P3) was resuspended with 1:1 Mannitol Buffer. The P2 and P3 protein concentration was determined with the BIORAD Standard assay method with bovine serum albumin as standard and measured on the NANO-Drop 1000. The membrane suspension was aliquots (500 μl per tube) and stored at −80° C. until required.
(§3) Membrane homogenates were resuspended and polytronised (Polytron PT1200E Kinematica AG) in Potassium Phosphate 10 mM, KCl 100 mM binding buffer at pH 7.4 to a final assay concentration determined with a previous experiment.
(§4) Assays were incubated to equilibrium for 1 hour at 4° C. and then, membranes were filtered onto unifilter (96-well white microplate with bonded GF/C filters preincubated 20-50 minutes in 0.3% Polyethylenimine) with a Filtermate 196 harvester (Packard BioScience) and washed 4 times with cold Potassium Phosphate 10 mM pH 7.4, KCl 100 mM binding buffer. After anhydrousing, filter-retained radioactivity was detected by liquid scintillation counting. Ki values were calculated using Excel-Fit (Microsoft) and are the means of two determinations.

[3] = target: h-GABA-A α2β2γ1 receptor (Homo sapiens (Human), UniProt P47869+Q8N1C3); assay: Two-electrode voltage clamp electrophysiology in Xenopus oocytes expressing GABAA receptors; format: cell-based; conditions: for potentiation of the GABA-induced current: α2β2γ1 GABAA receptor subtype expressing oocytes, GABA EC20, reference PAMs
Protocol: Xenopus laevis oocytes at maturation stages V-VI were used for the expression of cloned mRNA encoding GABAA receptor subunits. Oocytes ready for RNA micro-injection were bought from Ecocyte, Castrop-Rauxel, Germany and stored in modified Barth's medium (composition in mM: NaCl 88, KCl 1, NaHCO3 2.4, HEPES 10, MgSO4 0.82, CaNO3 0.33, CaCl2 0.33, pH=7.5) at 20° C. until the experiment.
Oocytes were plated in 96-well plates for microinjection using the Roboinject automated instrument (MultiChannelSystems, Reutlingen, Germany). Approximately 50 nL of an aqueous solution containing the RNA transcripts for the subunits of the desired GABAA receptor subtype was injected into each oocyte. […] Oocytes were kept in modified Barth's medium (composition in mM: NaCl 88, KCl 1, NaHCO3 4, HEPES 10, MgSO4 0.82, CaNO3 0.33, CaCl, 0.33, pH=7.5) at 20° C. until the experiment.
Electrophysiological experiments were performed using the Roboocyte instrument (MultiChannelSystems, Reutlingen, Germany) on days 3 to 5 after the micro-injection of mRNA. During the experiment the oocytes were constantly superfused by a solution containing (in mM) NaCl 90, KCl 1, HEPES 5, MgCl2 1, CaCl2 1 (pH 7.4). Oocytes were impaled by two glass microelectrodes (resistance: 0.5-0.8 MΩ) which were filled with a solution containing KCl 1M+K-acetate 1.5 M and voltage-clamped to −80 mV. The recordings were performed at room temperature using the Roboocyte two-electrode voltage clamp system (Multichannelsystem). After an initial equilibration period of 1.5 min GABA was added for 1.5 min at a concentration evoking approximately 20% of a maximal current response (EC2O). After another rest interval of 2.5 min GABA was again added evoking a response of similar amplitude and shape. […] Current traces were recorded at a digitization rate of 10 Hz during and shortly before and after the GABA application.
Each compound and concentration was tested on at least 3 oocytes. Different oocytes were used for different compound concentrations.
For the analysis, the digitized current traces of the first and second GABA response were superimposed and, if necessary, rescaled to equal maximal amplitudes. The ratio between the two responses during the time interval of test compound application was calculated point by point. The extremum of the resulting “ratio trace” was taken as the efficacy (“Fold increase”) of the compound expressed as “% modulation of GABA EC20” (100*(Fold increase−1)).

[4] = target: human GABAA α5β2γ1 receptor (Homo sapiens (Human), UniProt P31644+Q8N1C3); assay: Radioligand binding assay, competition for [3H]RO7239181, membranes from HEK293F cells
Protocol: as §1, with “α1β2γ1. For better protein expression of the α2 subunit-containing receptors, the 28 amino acid long signal peptide (Met1 to Ala28) of the human GABAA α2 subunit was substituted by the 31 amino acid long signal peptide (Met1 to Ser31) of human GABAA α5 subunit.” for “α1β2γ1.”
as §2, §3
as §4, with “Radioligand binding assays were carried out in a volume of 200 μL (96-well plates) which contained 100 μL of cell membranes, [^3H]RO7239181 at a concentration of 1.5 nM (α5β2γ1) or 20-30 nM (α1β2γ1, α2β2γ1) and the test compound in the range of [0.3-10000]×10^−9 M. Nonspecific binding was defined by 10×10^−6 (α5β2γ1) and 30×10^−6 M RO7239181 and typically represented less than 5% (α5β2γ1) and less than 20% (α1β2γ1, α2β2γ1) of the total binding. Assays” for “Assays”
Representative test results, obtained by the above described assay measuring binding affinity to HEK293 cells expressing human (h) receptors, are shown in the Table 1.

[5] = read-out: Ki h-GABAA α2β2γ1, [3H]RO7239181 20-30 nM, HEK293F membranes, 1 hour at 4° C., mean of two determinations

Compound | LogSel [1] | Ki [2] | Ki [1] | γ2/γ1 Selectivity Ratio [1] | Ki [4] | Ki [2, 5] | further results
CN1C(=O)CN=C(c2cc(O)ccc2Cl)c2cc(Cl)ccc21 [RE-A, 7-chloro-5-(2-chloro-5-hydroxy-phenyl)-1-methyl-3H-1,4-benzodiazepin-2-one, reference compound] | −0.27 |  |  |  |  |  | Ki ([2]; [3H]RO7239181 20-30 nM, HEK293F membranes, 1 hour at 4° C., mean of two determinations, read-out: Ki h-GABAA α2β2γ1): 2.8 nM
Cc1ncc2n1-c1ccc(Cl)cc1C(c1ccccc1F)=NC2 [Midazolam, reference compound] | −2.2 |  |  |  |  |  | potentiation of the GABA-induced current [3]: ~60%
Cc1nnc2n1-c1ccc(Cl)cc1C(c1ccccc1Cl)=NC2 [Triazolam, reference compound] | −1.5 |  |  |  |  |  | potentiation of the GABA-induced current [3]: ~60%
C[C@@H]1N=C(c2nc(O)ccc2F)c2c(ccc(C(F)(F)F)c2Cl)-n2nc(C(=O)N3CC(F)C3)nc21 [Example 21, [(4S)-7-chloro-6-(3-fluoro-6-hydroxy-2-pyridyl)-4-methyl-8-(trifluoromethyl)-4H-[1,2,4]triazolo[1,5-a][1,4]benzodiazepin-2-yl]-(3-fluoroazetidin-1-yl)methanone] |  | 11.8 nM |  |  |  |  | Ki ([1]; read-out: Ki h-GABAA α1β3γ2, [3H]Flumazenil 1 nM, HEK293F membranes, 1 hour at 4° C., mean of two determinations): > 30000 nM; Efficacy (GABA) % ([3]; % modulation of GABA EC20 = 100*(Fold increase−1), compound at 30-fold Ki α2β2γ1): 73%; Ki ([4]; read-out: Ki h-GABAA α5β2γ1, [3H]RO7239181 […], HEK293F membranes, 1 hour at 4° C., mean of two determinations): 5.51 nM
Clc1ccc2c(c1)C(c1ccccc1)=NCc1nncn1-2 [Estazolam, reference compound] | −2.0 |  |  |  |  |  | 
CC(C)NC(=O)c1cn2c(n1)[C@H](C)N=C(c1nc(O)ccc1F)c1c-2ccc(C(F)(F)F)c1Cl [Example 32, (4S)-7-chloro-6-(3-fluoro-6-hydroxy-2-pyridyl)-N-isopropyl-4-methyl-8-(trifluoromethyl)-4H-imidazo[1,2-a][1,4]benzodiazepine-2-carboxamide] | 2.90 | 10.8 nM | 8600 nM | 796.0 | 4.7 nM | 10.8 nM | 
CN1C(=O)CN=C(c2cc(O)ccc2F)c2cc(Cl)ccc21 [RE-B, 7-chloro-5-(2-fluoro-5-hydroxy-phenyl)-1-methyl-3H-1,4-benzodiazepin-2-one, reference compound] | −0.24 | 1.9 nM | 1.1 nM | 0.58 |  |  | 
C[C@@H]1N=C(c2nc(O)ccc2F)c2c(ccc(C(F)(F)F)c2Cl)-n2cc(C(=O)NC3CC3)nc21 [Example 31, (4S)-7-chloro-N-cyclopropyl-6-(3-fluoro-6-hydroxy-2-pyridyl)-4-methyl-8-(trifluoromethyl)-4H-imidazo[1,2-a][1,4]benzodiazepine-2-carboxamide] | 2.90 | 15.6 nM | 12500 nM | 800.9 | 4.4 nM | 15.6 nM | 
CN1C(=O)CN=C(c2ccccc2F)c2cc([N+](=O)[O-])ccc21 [Flunitrazepam, reference compound] |  |  |  |  |  |  | potentiation of the GABA-induced current [3]: ~60%
Cc1nnc2n1-c1ccc(Cl)c(Cl)c1C(c1c(F)ccc(O)c1F)=N[C@H]2C [Example 19, 2,4-difluoro-3-[(4S)-7,8-dichloro-1,4-dimethyl-4H-[1,2,4]triazolo[4,3-a][1,4]benzodiazepin-6-yl]phenol] | 1.02 | 3.12 nM | 33 nM | 10.6 | 2.12 nM | 3.12 nM | 
Cc1nnc2n1-c1ccc(Cl)cc1C(c1ccccc1)=NC2 [Alprazolam, reference compound] | −2.3 |  |  |  |  |  | 
Cc1cn2c(n1)[C@H](C)N=C(c1nc(O)ccc1Cl)c1c-2ccc(C(F)(F)F)c1Cl [Example 27, 5-chloro-6-[(4S)-7-chloro-2,4-dimethyl-8-(trifluoromethyl)-4H-imidazo[1,2-a][1,4]benzodiazepin-6-yl]pyridin-2-ol] | 2.83 | 5.22 nM | 3550 nM | 679.2 | 2.8 nM | 5.22 nM | 
